The results in this text go back to ChEMBL document CHEMBL1201862, “PubChem BioAssay data set” (2004).

For orientation: GI50 means the concentration at which growth is held to half of that of the control.

Molecules are shown by their SMILES.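 Protocol summary: plate cells (96-well), add compound at 5 concentrations, incubate 48 h, interpolate endpoints linearly. GI50: concentration for 50% inhibition of growth.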 The source made the active and inactive calls. Rule as the data show it: active = GI50 up to about 1.1 µM and inactive = higher. Square brackets hold non-standard residues; d marks the D form. Peptide text beside a SMILES is read from it. 2Nal = N[CH](Cc1ccc2ccccc2c1)C(=O)O

What all share (assay): DTP human tumour cell line panel, 48 h
In test [1] the test system is XF498.
Test [2] relates to HOP-18.
The subject of test [3] is M19-MEL.
For test [4], the system named is KM-20L2.
Test [5] concerns SNB-78.
The subject of test [6] is DMS-273.
In test [7] the test system is DLD-1.
Test [8] relates to LXFL 529.
Test [9] relates to RXF 631.

On to `COc1ccc2c(c1)OCCc1cn[nH]c1-2`, for which the GI50 in test [1] was 29 µM (inactive); in test [2] it was 30.8 µM (inactive); in test [3], 69 µM (inactive); in test [4] it was 54 µM (inactive); in test [5], 29.1 µM (inactive); in [6], 32.2 µM (inactive). Besides, the GI50 in test [7] is 36.7 µM (inactive).

As for `O=C(CSc1nnc(Cc2ccccc2)o1)Nc1cccc([N+](=O)[O-])c1`, the GI50 in [8], in test [2], in test [3], in [4], in test [5] and in test [6] was > 100 µM (inactive) each time. In addition, in test [7], the GI50 is > 100 µM (inactive).

As for `COc1cc(OC)c(C(=O)c2cccs2)cc1N`, the GI50 in test [8] is > 100 µM (inactive); in test [1], > 100 µM (inactive); in test [2], 23.7 µM (inactive); in test [3], > 100 µM (inactive); in [4] it was > 100 µM (inactive); in test [9] it was > 100 µM (inactive). Besides, the GI50 in [5], in test [6] and in [7] was > 100 µM (inactive) in each case.

For `CCOc1ccc(NCC(=O)N2CC(=O)Nc3ccccc32)cc1`, the GI50 in [8], in [1], in test [2], in test [3], in [4] and in [5] was > 100 µM (inactive) throughout. Further, the GI50 in test [6] and in test [7] was > 100 µM (inactive) throughout.

With `COc1cc(NC(C)=O)c2[nH]c3c(C)cc(NC(C)=O)c(C)c3c2c1`, the GI50 in [8], in test [1], in test [2], in test [3], in test [4] and in test [6] was > 100 µM (inactive) in each case. The GI50 in test [7] was > 100 µM (inactive).

Consider `O=C1c2ccccc2C(=O)N1Cc1ccccc1-c1c2nc(c(-c3ccccc3CN3C(=O)c4ccccc4C3=O)c3ccc([nH]3)c(-c3ccccc3CN3C(=O)c4ccccc4C3=O)c3nc(c(-c4ccccc4CN4C(=O)c5ccccc5C4=O)c4ccc1[nH]4)C=C3)C=C2`, for which the GI50 in test [8], in test [2], in test [3], in test [4], in test [5] and in [6] was > 100 µM (inactive) each time. Moreover, in test [7], the GI50 is > 100 µM (inactive).

Consider `C/C(CC(=O)Nc1ccc(Cl)cc1)=N\NC(=O)C[n+]1ccccc1`, for which the GI50 in test [8], in test [1], in [4], in [9], in [5] and in [6] was > 100 µM (inactive) each time. Further, the GI50 in test [7] was > 100 µM (inactive).

Consider `NCCNc1ccc(NCCN)c2c1C(=O)c1c(O)ccc(O)c1C2=O`, for which the GI50 in test [8] is 0.00807 µM (active); in test [1], < 0.001 µM (active); in test [2] it was 0.361 µM (active); in test [3] it was 0.0197 µM (active); in test [4], 0.0181 µM (active); in test [9], < 0.001 µM (active). Moreover, the GI50 in test [5] was 0.207 µM (active); in test [6], < 0.001 µM (active); in test [7], 0.0336 µM (active).

Regarding `C/C(=C/C(=O)Nc1ccccc1)Nc1onc(C)c1C`, the GI50 in [1], in test [2], in test [3], in test [4], in [5] and in test [6] was > 100 µM (inactive) throughout. Moreover, the GI50 in [7] is > 100 µM (inactive).

In the case of `CCOC(=O)C1(C#N)C(c2ccccc2)CC(O)(c2ccc([N+](=O)[O-])cc2)C(C(=O)c2ccc([N+](=O)[O-])cc2)C1c1ccccc1` (centres undefined), the GI50 in [8] was > 100 µM (inactive); in test [1], > 100 µM (inactive); in [2], 29.9 µM (inactive); in test [3], > 100 µM (inactive); in test [4], > 100 µM (inactive); in test [5] it was > 100 µM (inactive). Besides, the GI50 in test [6] and in test [7] was > 100 µM (inactive) in each case.

Turning to `Cc1cc(NS(=O)(=O)c2ccc(NC(=O)COC(=O)c3cccc4c(=O)c5ccccc5[nH]c34)cc2)no1`, the GI50 in [8], in test [1], in test [3], in test [4], in [5] and in test [6] was > 100 µM (inactive) each time. The GI50 in [7] is > 100 µM (inactive).

Turning to `COC(=O)C(CC(C)C)NC(=O)NC12CC3CC(CC(F)(C3)C1)C2` (centres undefined), the GI50 in test [8], in [3], in test [4], in test [9], in [5] and in test [7] was > 100 µM (inactive) each time.

Turning to `Cc1c(C)c2cc3c(=O)c(CCl)coc3c(C)c2oc1=O`, the GI50 in test [8], in [2], in [3], in [4], in [9] and in [5] was > 100 µM (inactive) in each case.

Consider `CC(=O)CCC#Cc1ccccc1C(=O)C(C)=[N+]=[N-]`, for which the GI50 in test [1] was 20.5 µM (inactive); in [2], 97.1 µM (inactive); in [4], 79.1 µM (inactive); in test [6], 26.4 µM (inactive); in test [7], 79.8 µM (inactive).

Turning to `CC(C)=CCc1c(O)cc(O)c2c1OC(c1ccc(O)cc1)C(O)C2=O` (centres undefined), the GI50 in [8] is 28.8 µM (inactive); in [1] it was 30.2 µM (inactive); in [2], 17.8 µM (inactive); in test [3], 35.7 µM (inactive); in test [4], 18.1 µM (inactive); in [9], 31.8 µM (inactive). Further, the GI50 in test [5] was 24.3 µM (inactive); in test [7], 30.2 µM (inactive).

On to `O=C[C@@H](CO)O[C@H](C=O)n1cnc2c(=O)nc[nH]c21`, for which the GI50 in test [1] was 459 µM (inactive); in test [2], 388 µM (inactive); in test [3], 346 µM (inactive); in test [4] it was 426 µM (inactive); in test [5], 562 µM (inactive); in [6], 101 µM (inactive). Moreover, the GI50 in test [7] was 77.8 µM (inactive).

In the case of `COC(=O)C(Cc1nc2ccc(Cl)cc2nc1O)/C(=N/O)C(=O)Nc1cccc(Cl)c1C` (centres undefined), the GI50 in test [8], in [1], in [2], in test [3], in test [4] and in [5] was > 100 µM (inactive) each time. In addition, the GI50 in test [6] and in [7] was > 100 µM (inactive) in each case.

`O=C1NC2OC(C(O)CO)C(O)C2O1` (centres undefined): the GI50 in [8], in [1], in test [2], in test [3], in [4] and in test [6] was > 100 µM (inactive) throughout.

Take `CCOc1cccc2sc(N)nc12`: the GI50 in [8], in test [2], in [3], in [4], in [5] and in test [6] was > 100 µM (inactive) throughout. Moreover, in test [7], the GI50 was > 100 µM (inactive).

For `Cc1ccccc1NC(=O)C(=O)CC(=O)c1ccc([N+](=O)[O-])cc1`, the GI50 in [8], in test [1], in test [2], in [3], in test [4] and in test [9] was > 100 µM (inactive) each time. Also, the GI50 in test [5], in test [6] and in [7] was > 100 µM (inactive) each time.

On to `CCOC(=O)CC1=CSC2=NCCN12`, for which the GI50 in test [8], in [1], in [2], in test [3], in [4] and in [9] was > 100 µM (inactive) throughout. In addition, the GI50 in [5], in test [6] and in test [7] was > 100 µM (inactive) throughout.

On to `COc1cc(C(=O)C/C(CCC(=O)Nc2ccc(Cl)cc2Cl)=N/NC(=O)C(N)=O)ccc1O`, for which the GI50 in [8], in test [1], in test [2], in test [3], in test [4] and in test [9] was > 100 µM (inactive) throughout. In addition, the GI50 in test [5], in [6] and in [7] was > 100 µM (inactive) each time.

Consider `COc1cccc(N[C@@H]2c3cc4c(cc3C(c3cc(OC)c(O)c(OC)c3)[C@H]3C(=O)OCC32)OCO4)c1` (some centres undefined), for which the GI50 in test [1] is 1.12 µM (inactive); in test [2] it was 1.52 µM (inactive); in test [3] it was 0.624 µM (active); in [4] it was 1.46 µM (inactive); in [5] it was 5.36 µM (inactive); in test [6], 0.148 µM (active). The GI50 in [7] was 1.58 µM (inactive).

For the molecule `CC(C)C(NC(=O)C(CCCCN)NC(=O)C(Cc1c[nH]c2ccccc12)NC(=O)C(Cc1ccc(O)cc1)NC(=O)C(CS)NC(=O)C(N)Cc1ccc2ccccc2c1)C(=O)NC(CS)C(=O)NC(C(N)=O)C(C)O` (centres undefined) (H-[2Nal]CYWKVCT-NH2; configuration not given here), the GI50 in test [8], in [1], in test [2], in [3], in test [4] and in test [9] was > 100 µM (inactive) each time. Moreover, the GI50 in test [5] was 8.15 µM (inactive); in test [6] it was > 100 µM (inactive); in test [7] it was > 100 µM (inactive).
